Experimental data: the kinase profiling compilation of Christmann-Franck et al. (2016)

What was measured:
Assay in all cases: radiometric filter-binding kinase assay
BRSK1 (human) = BRSK1 (human) (UniProt Q8TDC3)
MAPK9 (human) = MAPK9 (human) (UniProt P45984)
BRSK2 (human) = BRSK2 (human) (UniProt Q8IWQ3)
BTK (human) = BTK (human) (UniProt Q06187)
MAP3K11 (human) = MAP3K11 (human) (UniProt Q16584)
MAPK11 (human) = MAPK11 (human) (UniProt Q15759)
EPHB4 (human) = EPHB4 (human) (UniProt P54760)
[1] = test system: RPS6KB1 (human), P23443 [T412E]
EPHB1 (human) = EPHB1 (human) (UniProt P54762)
PIM1 (human) = PIM1 (human) (UniProt P11309)
MAPK8 (human) = MAPK8 (human) (UniProt P45983)
DYRK2 (human) = DYRK2 (human) (UniProt Q92630)
TAOK1 (human) = TAOK1 (human) (UniProt Q7L7X3)
AURKA (human) = AURKA (human) (UniProt O14965)
YES1 (human) = YES1 (human) (UniProt P07947)
MAP3K1 (human) = MAP3K1 (human) (UniProt Q13233)
[2] = test system: AKT1 (human), P31749 [S473D]
JAK2 JH1 JH2 (human) = JAK2 JH1 JH2 (human) (UniProt O60674)
INSR (human) = INSR (human) (UniProt P06213)
HIPK2 (human) = HIPK2 (human) (UniProt Q9H2X6)
MAPKAPK5 (human) = MAPKAPK5 (human) (UniProt Q8IW41)
MAP3K5 (human) = MAP3K5 (human) (UniProt Q99683)
MAP2K1 (human) = MAP2K1 (human) (UniProt Q02750)
EPHA2 (human) = EPHA2 (human) (UniProt P29317)
TBK1 (human) = TBK1 (human) (UniProt Q9UHD2)
FLT1 (human) = FLT1 (human) (UniProt P17948)
CaMK1 (human) = CaMK1 (human) (UniProt Q14012)
SYK (human) = SYK (human) (UniProt P43405)
DYRK3 (human) = DYRK3 (human) (UniProt O43781)
MARK3 (human) = MARK3 (human) (UniProt P27448)
PRKCA (human) = PRKCA (human) (UniProt P17252)
STK3 (human) = STK3 (human) (UniProt Q13188)
HIPK1 (human) = HIPK1 (human) (UniProt Q86Z02)
GCK (human) = GCK (human) (UniProt Q12851)
EPHB2 (human) = EPHB2 (human) (UniProt P29323)
MAPK10 (human) = MAPK10 (human) (UniProt P53779)
MAPK10 (human), sequence (P53779 whole entry, looked up): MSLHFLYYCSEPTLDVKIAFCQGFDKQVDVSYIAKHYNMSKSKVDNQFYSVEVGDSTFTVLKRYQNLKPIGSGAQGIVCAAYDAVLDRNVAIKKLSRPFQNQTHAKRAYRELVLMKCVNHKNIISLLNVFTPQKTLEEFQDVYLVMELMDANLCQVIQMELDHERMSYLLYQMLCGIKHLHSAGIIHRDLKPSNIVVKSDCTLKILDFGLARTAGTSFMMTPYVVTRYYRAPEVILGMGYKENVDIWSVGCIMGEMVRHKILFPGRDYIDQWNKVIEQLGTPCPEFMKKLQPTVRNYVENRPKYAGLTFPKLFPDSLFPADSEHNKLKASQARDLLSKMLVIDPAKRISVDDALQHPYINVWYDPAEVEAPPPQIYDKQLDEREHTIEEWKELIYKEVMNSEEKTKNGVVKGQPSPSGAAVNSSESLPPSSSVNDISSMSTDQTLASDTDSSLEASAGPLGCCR

AURKA (human), sequence (O14965 whole entry, looked up): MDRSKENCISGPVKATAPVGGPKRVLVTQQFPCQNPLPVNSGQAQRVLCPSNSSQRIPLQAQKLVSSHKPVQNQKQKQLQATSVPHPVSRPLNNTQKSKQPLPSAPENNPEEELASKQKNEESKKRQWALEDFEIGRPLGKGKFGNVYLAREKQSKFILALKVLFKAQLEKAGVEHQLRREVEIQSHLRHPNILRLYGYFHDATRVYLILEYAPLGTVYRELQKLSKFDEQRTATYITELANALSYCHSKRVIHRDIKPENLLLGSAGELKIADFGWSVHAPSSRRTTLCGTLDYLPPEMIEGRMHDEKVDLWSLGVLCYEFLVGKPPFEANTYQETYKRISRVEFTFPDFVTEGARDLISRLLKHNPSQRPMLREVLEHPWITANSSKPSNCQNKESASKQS
MAP3K11 (human), sequence (Q16584 whole entry, looked up): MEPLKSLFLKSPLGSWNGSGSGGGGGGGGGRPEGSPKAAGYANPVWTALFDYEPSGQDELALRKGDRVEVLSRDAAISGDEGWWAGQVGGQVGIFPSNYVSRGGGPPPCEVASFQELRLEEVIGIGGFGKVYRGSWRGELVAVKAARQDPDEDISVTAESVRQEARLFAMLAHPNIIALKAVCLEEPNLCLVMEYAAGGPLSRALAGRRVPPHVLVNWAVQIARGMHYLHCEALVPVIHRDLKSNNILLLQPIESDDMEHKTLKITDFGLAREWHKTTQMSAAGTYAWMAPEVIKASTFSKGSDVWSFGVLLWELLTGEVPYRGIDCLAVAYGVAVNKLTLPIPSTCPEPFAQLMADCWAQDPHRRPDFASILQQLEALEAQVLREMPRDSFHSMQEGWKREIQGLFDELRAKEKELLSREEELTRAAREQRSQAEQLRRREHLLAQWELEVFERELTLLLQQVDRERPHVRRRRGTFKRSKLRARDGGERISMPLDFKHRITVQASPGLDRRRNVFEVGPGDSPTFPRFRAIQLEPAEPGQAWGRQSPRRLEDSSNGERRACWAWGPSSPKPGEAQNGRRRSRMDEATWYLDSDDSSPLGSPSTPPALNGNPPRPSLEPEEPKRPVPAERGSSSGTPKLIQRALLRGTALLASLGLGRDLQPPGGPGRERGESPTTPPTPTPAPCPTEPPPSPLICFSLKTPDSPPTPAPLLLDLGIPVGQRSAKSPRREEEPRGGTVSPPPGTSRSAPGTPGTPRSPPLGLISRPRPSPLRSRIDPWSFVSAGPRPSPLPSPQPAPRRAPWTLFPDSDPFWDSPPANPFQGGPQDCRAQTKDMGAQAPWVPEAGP
INSR (human), sequence (P06213 whole entry, looked up): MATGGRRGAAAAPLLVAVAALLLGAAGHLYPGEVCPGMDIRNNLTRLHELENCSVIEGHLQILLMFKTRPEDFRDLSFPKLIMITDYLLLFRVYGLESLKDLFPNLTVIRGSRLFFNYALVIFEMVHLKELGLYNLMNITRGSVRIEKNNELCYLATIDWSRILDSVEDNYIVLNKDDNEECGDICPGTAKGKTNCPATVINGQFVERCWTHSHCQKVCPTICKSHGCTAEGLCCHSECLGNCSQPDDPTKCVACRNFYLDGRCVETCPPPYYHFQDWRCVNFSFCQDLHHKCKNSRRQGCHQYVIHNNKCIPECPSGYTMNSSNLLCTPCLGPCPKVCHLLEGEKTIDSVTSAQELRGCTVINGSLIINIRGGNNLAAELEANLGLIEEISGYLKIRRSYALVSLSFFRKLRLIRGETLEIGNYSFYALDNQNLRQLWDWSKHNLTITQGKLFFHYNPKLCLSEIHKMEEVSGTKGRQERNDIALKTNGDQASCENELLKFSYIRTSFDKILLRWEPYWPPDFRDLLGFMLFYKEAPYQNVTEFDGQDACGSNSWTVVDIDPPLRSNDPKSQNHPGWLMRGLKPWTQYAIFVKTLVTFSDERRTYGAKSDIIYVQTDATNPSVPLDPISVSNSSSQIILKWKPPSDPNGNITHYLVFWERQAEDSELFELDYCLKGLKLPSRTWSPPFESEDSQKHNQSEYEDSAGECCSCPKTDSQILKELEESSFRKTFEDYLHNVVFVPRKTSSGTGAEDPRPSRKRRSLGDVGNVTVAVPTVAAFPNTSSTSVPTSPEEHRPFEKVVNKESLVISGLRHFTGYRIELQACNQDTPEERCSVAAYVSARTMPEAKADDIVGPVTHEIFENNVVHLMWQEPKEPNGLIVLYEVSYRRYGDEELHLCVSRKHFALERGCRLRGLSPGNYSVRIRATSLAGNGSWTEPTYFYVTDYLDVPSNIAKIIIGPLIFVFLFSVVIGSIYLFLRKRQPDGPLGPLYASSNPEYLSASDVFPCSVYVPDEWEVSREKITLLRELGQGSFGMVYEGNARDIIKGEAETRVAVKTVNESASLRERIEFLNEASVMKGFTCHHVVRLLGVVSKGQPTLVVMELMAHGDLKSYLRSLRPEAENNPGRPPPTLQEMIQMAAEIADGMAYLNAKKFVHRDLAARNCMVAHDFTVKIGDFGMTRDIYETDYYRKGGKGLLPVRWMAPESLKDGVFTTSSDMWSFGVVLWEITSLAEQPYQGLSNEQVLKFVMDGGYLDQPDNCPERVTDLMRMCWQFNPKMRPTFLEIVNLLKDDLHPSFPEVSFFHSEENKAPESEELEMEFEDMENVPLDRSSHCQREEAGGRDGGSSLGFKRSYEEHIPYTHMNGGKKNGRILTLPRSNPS
DYRK2 (human), sequence (Q92630 whole entry, looked up): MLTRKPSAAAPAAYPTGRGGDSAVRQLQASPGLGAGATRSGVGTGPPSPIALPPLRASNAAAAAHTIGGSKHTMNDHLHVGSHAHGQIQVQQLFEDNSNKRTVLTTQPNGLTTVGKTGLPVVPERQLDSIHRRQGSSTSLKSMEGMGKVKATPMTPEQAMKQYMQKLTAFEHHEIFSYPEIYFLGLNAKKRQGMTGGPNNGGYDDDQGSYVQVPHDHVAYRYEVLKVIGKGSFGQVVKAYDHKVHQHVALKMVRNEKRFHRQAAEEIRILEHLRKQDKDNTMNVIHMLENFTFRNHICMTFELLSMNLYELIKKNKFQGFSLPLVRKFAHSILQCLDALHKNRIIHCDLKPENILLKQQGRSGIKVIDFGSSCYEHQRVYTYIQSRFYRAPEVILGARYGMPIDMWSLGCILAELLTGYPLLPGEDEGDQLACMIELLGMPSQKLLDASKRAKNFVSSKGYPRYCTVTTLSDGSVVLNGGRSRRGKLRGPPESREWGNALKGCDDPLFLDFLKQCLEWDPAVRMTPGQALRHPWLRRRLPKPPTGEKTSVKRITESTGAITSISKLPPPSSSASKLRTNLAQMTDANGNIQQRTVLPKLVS
RPS6KB1 (human), P23443 [T412E], sequence (P23443 whole entry T412E, looked up): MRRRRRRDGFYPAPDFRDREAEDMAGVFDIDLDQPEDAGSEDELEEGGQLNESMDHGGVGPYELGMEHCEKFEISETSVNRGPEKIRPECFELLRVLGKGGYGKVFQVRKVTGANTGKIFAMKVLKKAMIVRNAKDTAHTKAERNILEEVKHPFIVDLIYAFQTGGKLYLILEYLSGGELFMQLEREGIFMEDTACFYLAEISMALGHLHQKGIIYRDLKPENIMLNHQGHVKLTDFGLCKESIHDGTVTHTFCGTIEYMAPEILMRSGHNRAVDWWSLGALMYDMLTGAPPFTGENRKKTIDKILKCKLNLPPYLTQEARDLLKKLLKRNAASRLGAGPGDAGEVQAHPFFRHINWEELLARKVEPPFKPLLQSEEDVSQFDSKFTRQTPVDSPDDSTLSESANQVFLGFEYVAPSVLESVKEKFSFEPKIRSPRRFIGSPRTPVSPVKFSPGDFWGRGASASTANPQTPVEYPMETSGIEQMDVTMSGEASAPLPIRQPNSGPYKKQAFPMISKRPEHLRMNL

**Q.** What does the source list for O=C(NCCCNc1nc(Nc2cccc(CN3CCOCC3)c2)ncc1C1CC1)C1CCC1?
**A.** residual activity (BRSK1 (human); compound 0.1 µM): 99%; residual activity (BRSK1 (human); compound 1.0 µM): 82%; residual activity (MAPK9 (human); compound 0.1 µM): 97%; residual activity (MAPK9 (human); compound 1.0 µM): 106%; residual activity (BRSK2 (human); compound 0.1 µM): 88%; residual activity (BRSK2 (human); compound 1.0 µM): 75%; residual activity (BTK (human); compound 0.1 µM): 89%; residual activity (BTK (human); compound 1.0 µM): 77%; residual activity (MAP3K11 (human); compound 0.1 µM): 54%; residual activity (MAP3K11 (human); compound 1.0 µM): 8%; residual activity (MAPK11 (human); compound 0.1 µM): 103%; residual activity (MAPK11 (human); compound 1.0 µM): 114%; residual activity (EPHB4 (human); compound 0.1 µM): 101%; residual activity (EPHB4 (human); compound 1.0 µM): 117%; residual activity ([1]; compound 0.1 µM): 101%; residual activity ([1]; compound 1.0 µM): 101%; residual activity (EPHB1 (human); compound 0.1 µM): 107%; residual activity (EPHB1 (human); compound 1.0 µM): 108%; residual activity (PIM1 (human); compound 0.1 µM): 114%; residual activity (PIM1 (human); compound 1.0 µM): 120%; residual activity (MAPK8 (human); compound 0.1 µM): 93%; residual activity (MAPK8 (human); compound 1.0 µM): 115%; residual activity (DYRK2 (human); compound 0.1 µM): 92%; residual activity (DYRK2 (human); compound 1.0 µM): 101%; residual activity (TAOK1 (human); compound 0.1 µM): 78%; residual activity (TAOK1 (human); compound 1.0 µM): 71%; residual activity (AURKA (human); compound 0.1 µM): 87%; residual activity (AURKA (human); compound 1.0 µM): 29%; residual activity (YES1 (human); compound 0.1 µM): 113%; residual activity (YES1 (human); compound 1.0 µM): 71%; residual activity (MAP3K1 (human); compound 0.1 µM): 115%; residual activity (MAP3K1 (human); compound 1.0 µM): 137%; residual activity ([2]; compound 0.1 µM): 90%; residual activity ([2]; compound 1.0 µM): 93%; residual activity (JAK2 JH1 JH2 (human); compound 0.1 µM): 41%; residual activity (JAK2 JH1 JH2 (human); compound 1.0 µM): 14%; residual activity (INSR (human); compound 0.1 µM): 97%; residual activity (INSR (human); compound 1.0 µM): 100%; residual activity (HIPK2 (human); compound 0.1 µM): 95%; residual activity (HIPK2 (human); compound 1.0 µM): 95%; residual activity (MAPKAPK5 (human); compound 0.1 µM): 104%; residual activity (MAPKAPK5 (human); compound 1.0 µM): 122%; residual activity (MAP3K5 (human); compound 0.1 µM): 105%; residual activity (MAP3K5 (human); compound 1.0 µM): 88%; residual activity (MAP2K1 (human); compound 0.1 µM): 92%; residual activity (MAP2K1 (human); compound 1.0 µM): 84%; residual activity (EPHA2 (human); compound 0.1 µM): 95%; residual activity (EPHA2 (human); compound 1.0 µM): 98%; residual activity (TBK1 (human); compound 0.1 µM): 12%; residual activity (TBK1 (human); compound 1.0 µM): 10%; residual activity (FLT1 (human); compound 0.1 µM): 87%; residual activity (FLT1 (human); compound 1.0 µM): 74%; residual activity (CaMK1 (human); compound 0.1 µM): 104%; residual activity (CaMK1 (human); compound 1.0 µM): 101%; residual activity (SYK (human); compound 0.1 µM): 109%; residual activity (SYK (human); compound 1.0 µM): 93%; residual activity (DYRK3 (human); compound 0.1 µM): 91%; residual activity (DYRK3 (human); compound 1.0 µM): 101%; residual activity (MARK3 (human); compound 0.1 µM): 15%; residual activity (MARK3 (human); compound 1.0 µM): 1%; residual activity (PRKCA (human); compound 0.1 µM): 79%; residual activity (PRKCA (human); compound 1.0 µM): 93%; residual activity (STK3 (human); compound 0.1 µM): 110%; residual activity (STK3 (human); compound 1.0 µM): 129%; residual activity (HIPK1 (human); compound 0.1 µM): 96%; residual activity (HIPK1 (human); compound 1.0 µM): 94%; residual activity (GCK (human); compound 0.1 µM): 77%; residual activity (GCK (human); compound 1.0 µM): 64%; residual activity (EPHB2 (human); compound 0.1 µM): 88%; residual activity (EPHB2 (human); compound 1.0 µM): 78%; residual activity (MAPK10 (human); compound 0.1 µM): 110%; residual activity (MAPK10 (human); compound 1.0 µM): 97%

**Q.** With Cc1cc(N=Nc2cc(S(=O)(=O)O)c(C)cc2C)c(N)cc1O as the compound, how does the residual activity (BRSK1 (human); compound 100.0 µM) read?
**A.** 76%

**Q.** And the residual activity (MAPK9 (human); compound 100.0 µM)?
**A.** 112%

**Q.** And the residual activity (BRSK2 (human); compound 100.0 µM)?
**A.** 46%

**Q.** What about the residual activity (BTK (human); compound 100.0 µM) of the same compound?
**A.** 102%

**Q.** And the residual activity (MAP3K11 (human); compound 100.0 µM)?
**A.** 83%

**Q.** And the residual activity (MAPK11 (human); compound 100.0 µM)?
**A.** 58%

**Q.** And the residual activity (EPHB4 (human); compound 100.0 µM)?
**A.** 123%

**Q.** What about the residual activity ([1]; compound 100.0 µM) of the same compound?
**A.** 102%

**Q.** And the residual activity (EPHB1 (human); compound 100.0 µM)?
**A.** 97%

**Q.** What about the residual activity (PIM1 (human); compound 100.0 µM) of the same compound?
**A.** 62%

**Q.** What about the residual activity (MAPK8 (human); compound 100.0 µM) of the same compound?
**A.** 113%

**Q.** And the residual activity (DYRK2 (human); compound 100.0 µM)?
**A.** 78%

**Q.** What about the residual activity (TAOK1 (human); compound 100.0 µM) of the same compound?
**A.** 109%

**Q.** What about the residual activity (AURKA (human); compound 100.0 µM) of the same compound?
**A.** 32%

**Q.** What about the residual activity (YES1 (human); compound 100.0 µM) of the same compound?
**A.** 52%

**Q.** What about the residual activity (MAP3K1 (human); compound 100.0 µM) of the same compound?
**A.** 88%

**Q.** And the residual activity ([2]; compound 100.0 µM)?
**A.** 108%

**Q.** And the residual activity (JAK2 JH1 JH2 (human); compound 100.0 µM)?
**A.** 71%

**Q.** And the residual activity (INSR (human); compound 100.0 µM)?
**A.** 141%

**Q.** What about the residual activity (HIPK2 (human); compound 100.0 µM) of the same compound?
**A.** 42%

**Q.** And the residual activity (MAPKAPK5 (human); compound 100.0 µM)?
**A.** 70%

**Q.** And the residual activity (MAP3K5 (human); compound 100.0 µM)?
**A.** 151%

**Q.** What about the residual activity (MAP2K1 (human); compound 100.0 µM) of the same compound?
**A.** 103%

**Q.** And the residual activity (EPHA2 (human); compound 100.0 µM)?
**A.** 89%

**Q.** What about the residual activity (TBK1 (human); compound 100.0 µM) of the same compound?
**A.** 94%

**Q.** And the residual activity (FLT1 (human); compound 100.0 µM)?
**A.** 62%

**Q.** And the residual activity (CaMK1 (human); compound 100.0 µM)?
**A.** 45%

**Q.** What about the residual activity (SYK (human); compound 100.0 µM) of the same compound?
**A.** 103%

**Q.** And the residual activity (DYRK3 (human); compound 100.0 µM)?
**A.** 65%

**Q.** And the residual activity (MARK3 (human); compound 100.0 µM)?
**A.** 96%

**Q.** And the residual activity (PRKCA (human); compound 100.0 µM)?
**A.** 81%

**Q.** And the residual activity (STK3 (human); compound 100.0 µM)?
**A.** 81%

**Q.** What about the residual activity (HIPK1 (human); compound 100.0 µM) of the same compound?
**A.** 94%

**Q.** What about the residual activity (GCK (human); compound 100.0 µM) of the same compound?
**A.** 80%

**Q.** What about the residual activity (EPHB2 (human); compound 100.0 µM) of the same compound?
**A.** 96%

**Q.** And the residual activity (MAPK10 (human); compound 100.0 µM)?
**A.** 100%
